Data: ChEMBL document CHEMBL1649268, “Comparative in vitro activity profile of oritavancin against recent gram-positive clinical isolates” (2009)
≈ marks a conversion by molar mass, not a printed value.

Legend:
Type in all cases: functional
[1] = system: Staphylococcus aureus; experiment: Antimicrobial activity against Staphylococcus aureus clinical isolates assessed as percent susceptible isolates by broth microdilution method
[2] = system: Staphylococcus haemolyticus; experiment: Antimicrobial activity against oxacillin-resistant Staphylococcus haemolyticus clinical isolates assessed as percent susceptible isolates by broth microdilution method
[3] = system: Staphylococcus aureus; experiment: Antimicrobial activity against oxacillin-resistant Staphylococcus aureus clinical isolates assessed as resistant isolates by broth microdilution method
[4] = system: Staphylococcus haemolyticus; experiment: Antimicrobial activity against oxacillin-susceptible Staphylococcus haemolyticus clinical isolates by broth microdilution method
[5] = system: Staphylococcus epidermidis; experiment: Antimicrobial activity against Staphylococcus epidermidis clinical isolates by broth microdilution method
[6] = system: Staphylococcus epidermidis; experiment: Antimicrobial activity against Staphylococcus epidermidis clinical isolates assessed as resistant isolates by broth microdilution method
[7] = system: Staphylococcus epidermidis; experiment: Antimicrobial activity against Staphylococcus epidermidis clinical isolates assessed as percent susceptible isolates by broth microdilution method
[8] = system: Staphylococcus haemolyticus; experiment: Antimicrobial activity against Staphylococcus haemolyticus clinical isolates assessed as resistant isolates by broth microdilution method
[9] = system: Staphylococcus haemolyticus; experiment: Antimicrobial activity against oxacillin-resistant Staphylococcus haemolyticus clinical isolates by broth microdilution method
[10] = system: Staphylococcus haemolyticus; experiment: Antimicrobial activity against Staphylococcus haemolyticus clinical isolates by broth microdilution method
[11] = system: Staphylococcus aureus; experiment: Antimicrobial activity against oxacillin-susceptible Staphylococcus aureus clinical isolates by broth microdilution method
[12] = system: Staphylococcus haemolyticus; experiment: Antimicrobial activity against oxacillin-susceptible Staphylococcus haemolyticus clinical isolates assessed as resistant isolates by broth microdilution method
[13] = system: Staphylococcus epidermidis; experiment: Antimicrobial activity against oxacillin-susceptible Staphylococcus epidermidis clinical isolates assessed as resistant isolates by broth microdilution method
[14] = system: Staphylococcus haemolyticus; experiment: Antimicrobial activity against Staphylococcus haemolyticus clinical isolates assessed as percent susceptible isolates by broth microdilution method
[15] = system: Staphylococcus aureus; experiment: Antimicrobial activity against oxacillin-resistant Staphylococcus aureus clinical isolates by broth microdilution method
[16] = system: Staphylococcus epidermidis; experiment: Antimicrobial activity against oxacillin-susceptible Staphylococcus epidermidis clinical isolates by broth microdilution method
[17] = system: Staphylococcus haemolyticus; experiment: Antimicrobial activity against oxacillin-resistant Staphylococcus haemolyticus clinical isolates assessed as resistant isolates by broth microdilution method
[18] = system: Staphylococcus aureus; experiment: Antimicrobial activity against oxacillin-susceptible Staphylococcus aureus clinical isolates assessed as percent susceptible isolates by broth microdilution method
[19] = system: Staphylococcus aureus; experiment: Antimicrobial activity against oxacillin-resistant Staphylococcus aureus clinical isolates assessed as percent susceptible isolates by broth microdilution method
[20] = system: Staphylococcus haemolyticus; experiment: Antimicrobial activity against oxacillin-susceptible Staphylococcus haemolyticus clinical isolates assessed as percent susceptible isolates by broth microdilution method
[21] = system: Staphylococcus epidermidis; experiment: Antimicrobial activity against oxacillin-resistant Staphylococcus epidermidis clinical isolates assessed as resistant isolates by broth microdilution method
[22] = system: Staphylococcus epidermidis; experiment: Antimicrobial activity against oxacillin-susceptible Staphylococcus epidermidis clinical isolates assessed as percent susceptible isolates by broth microdilution method
[23] = system: Staphylococcus aureus; experiment: Antimicrobial activity against Staphylococcus aureus clinical isolates by broth microdilution method
[24] = system: Staphylococcus epidermidis; experiment: Antimicrobial activity against oxacillin-resistant Staphylococcus epidermidis clinical isolates assessed as percent susceptible isolates by broth microdilution method
[25] = system: Staphylococcus aureus; experiment: Antimicrobial activity against oxacillin-susceptible Staphylococcus aureus clinical isolates assessed as resistant isolates by broth microdilution method
[26] = system: Staphylococcus epidermidis; experiment: Antimicrobial activity against oxacillin-resistant Staphylococcus epidermidis clinical isolates by broth microdilution method
[27] = system: Staphylococcus aureus; experiment: Antimicrobial activity against Staphylococcus aureus clinical isolates assessed as resistant isolates by broth microdilution method

`Cc1onc(-c2ccccc2)c1C(=O)N[C@@H]1C(=O)N2[C@@H]1SC(C)(C)[C@@H]2C(=O)O` [OXACILLIN] showed an Activity [1] of 46.2%, an Activity [2] of 0% and a Percent resistant isolates [3] of 100%. For the same compound, the MIC90 [4] was 0.25 µg/mL (≈ 0.623 µM), the MIC90 [5] was over 8 µg/mL and the “Percent of isolates resistant” value [6] was 72.7%. For the same compound, the Activity [7] was 27.3%, the Resistant isolates [8] was 73.2% and the MIC90 [9] was over 8 µg/mL. The MIC90 [10] was over 8 µg/mL, the MIC90 [11] was 0.5 µg/mL (≈ 1.25 µM) and the Activity [12] was 0%. The “Percent of isolates resistant” value [13] was 0%, the Activity [14] was 26.8% and the MIC90 [15] was over 8 µg/mL. The MIC90 [16] was 0.12 µg/mL (≈ 0.299 µM), the Activity [17] was 100% and the Activity [18] was 100%. The Activity [19] was 0%, the Activity [20] was 100% and the “Percent of isolates resistant” value [21] was 100%. For the same compound, the Activity [22] was 100%, the MIC90 [23] was over 8 µg/mL and the Activity [24] was 0%. The “Percent of isolates resistant” value [25] was 0%, the MIC90 [26] was over 8 µg/mL and the Percent resistant isolates [27] was 53.8%.
